# Assay results reported in article PMC9304322, “Targeting retinoic acid receptor alpha-corepressor interaction activates chaperone-mediated autophagy and protects against retinal degeneration” (Nature Communications, 2022).
# “And” between values parts separate entries of the source, which are not always exact repeats. Identical values can stand only once.
# What was measured:
# [1] = system: NIH3T3 stably expressing the KFERQ-PS-Dendra; test: CMA activity, KFERQ-PS-Dendra fluorescent reporter in NIH3T3 mouse fibroblasts; format: cell-based; design: CMA activity (Fig. 1d), MEAN / CMA activity (Fig. 1e-g), mean / CMA activity (Fig. 1d), individual experiments / CMA activity, mean (Fig. S2c, second panel) / CMA activity, mean (Fig. S2c, first panel) / CMA activity, mean (Fig. S2c, third panel): unit not given here; conditions: for CMA activity (Fig. 1e-g), mean: n = 4; for CMA activity, mean (Fig. S2c, first panel) / CMA activity, mean (Fig. S2c, second panel) / CMA activity, mean (Fig. S2c, third panel): compound and cell type of panel not shown
# Protocol: (§1) Cells were transduced with lentivirus carrying the KFERQ-PS-Dendra reporter as before. Cells were photoactivated by exposure to a 3.5 mA (current constant) light emitting diode (LED: Norlux, 405 nm) for 3 min and then plated in glass-bottom 96 well plates. At the desired times, cells were fixed with 4% PFA and imaged using high-content microscopy (Operetta system, Perkin Elmer). Images were quantified using the manufacturer’s software in a minimum of 1,200 cells in 9 independent fields per well. […] This was particularly important in the case of primary human cells where the efficiency of transduction was ~65%. To avoid confounding effects for drug-induced changes in cell volume or adherence to the plate that could bring a fraction of the cells per field outside of focus, we set a threshold to count only […] that have at least 1/10 of the average number of […] detected in the untreated wells for each cell type (3–4 puncta/cell in the case of NIH3T3 and N2a cells and 5 puncta/cell in primary human fibroblasts).
# NIH3T3 = test: Intracellular proteolysis of long half-life proteins; format: cell-based, mouse
# Protocol: Confluent cells were labelled with [^3H]leucine (2μCi/ml) (NEN-PerkinElmer Life Sciences) for 48 h and then extensively washed and maintained in medium with an excess of unlabeled leucine. Proteolysis was calculated from aliquots of the medium taken at different times and precipitated in trichloroacetic acid, as the amount of acid-precipitable radioactivity transformed to acid-soluble radioactivity at each time. Where indicated cell were treated during the chase with […] leupeptin (Sigma, #108975) and […] NH4Cl (to determine lysosomal degradation) or with 100 μm MRT 68921 dihydrochloride (Tocris, #5780) (to determine macroautophagy degradation).
# [2] = system: neuroblastoma cell line N2a expressing the KFERQ-PS-Dendra reporter; test: CMA activity, KFERQ-PS-Dendra reporter in N2a cells; format: cell-based, mouse; design: CMA activity, mean (Fig. S2a): unit not given here
# Protocol: as §1
# [3] = concentration 10 (unit not given)
# [4] = concentration 15 (unit not given)
# [5] = concentration 20 (unit not given)
# [6] = concentration 25 (unit not given)
# [7] = concentration 30 (unit not given)
# [8] = concentration 40 (unit not given)
# [9] = concentration 50 (unit not given)
smiles,measurement,setting,value
Clc1ccc2c(c1)OCC(c1ccc(-c3ccccc3)cc1)=N2 [CA39],"CMA activity (Fig. 1d), MEAN","[1]; 20 μM of each compound, n = 3 independent experiments",4.580
same,"CMA activity (Fig. 1d), individual experiments","[1]; 20 μM of each compound, single experiments",5.482 and 4.270 and 3.988
same,"CMA activity (Fig. 1e-g), mean","[1]; 12h, concentration 0.02 (unit not given)",3.045
same,"CMA activity (Fig. 1e-g), mean","[1]; 12h, concentration 0.2",3.489
same,"CMA activity (Fig. 1e-g), mean","[1]; 12h, concentration 2",3.493
same,"CMA activity (Fig. 1e-g), mean","[1]; 12h, concentration 5",8.168
same,"CMA activity (Fig. 1e-g), mean","[1]; 12h, concentration 10",10.4134
same,"CMA activity (Fig. 1e-g), mean","[1]; 12h, concentration 20",22.9828
same,"CMA activity (Fig. 1e-g), mean","[1]; 12h, concentration 30",30.7253
same,"CMA activity (Fig. 1e-g), mean","[1]; 12h, concentration 40",33.0782
same,"CMA activity (Fig. 1e-g), mean","[1]; 12h, concentration 50",21.8692
same,"CMA activity (Fig. 1e-g), mean","[1]; 24h, concentration 0.02",3.576
same,"CMA activity (Fig. 1e-g), mean","[1]; 24h, concentration 0.2",3.419
same,"CMA activity (Fig. 1e-g), mean","[1]; 24h, concentration 2",5.488
same,"CMA activity (Fig. 1e-g), mean","[1]; 24h, concentration 5",11.6083
same,"CMA activity (Fig. 1e-g), mean","[1]; 24h, concentration 10",17.8717
same,"CMA activity (Fig. 1e-g), mean","[1]; 24h, concentration 20",34.1318
same,"CMA activity (Fig. 1e-g), mean","[1]; 24h, concentration 30",35.2802
same,"CMA activity (Fig. 1e-g), mean","[1]; 24h, concentration 40",50.2311
same,"CMA activity (Fig. 1e-g), mean","[1]; 24h, concentration 50",60.1885
same,"CMA activity (Fig. 1h-j), mean, untreated (0) = 1","[1]; concentration 0.2, 12+12w (12 h, then 12 h after washing out)",1.104
same,"CMA activity (Fig. 1h-j), mean, untreated (0) = 1","[1]; concentration 0.2, 12h",0.9726
same,"CMA activity (Fig. 1h-j), mean, untreated (0) = 1","[1]; concentration 0.2, 24h",1.209
same,"CMA activity (Fig. 1h-j), mean, untreated (0) = 1","[1]; concentration 2, 12+12w",1.202
same,"CMA activity (Fig. 1h-j), mean, untreated (0) = 1","[1]; concentration 2, 12h",0.9735
same,"CMA activity (Fig. 1h-j), mean, untreated (0) = 1","[1]; concentration 2, 24h",1.941
same,"CMA activity (Fig. 1h-j), mean, untreated (0) = 1","[1]; concentration 5, 12+12w",1.546
same,"CMA activity (Fig. 1h-j), mean, untreated (0) = 1","[1]; concentration 5, 12h",2.277
same,"CMA activity (Fig. 1h-j), mean, untreated (0) = 1","[1]; concentration 5, 24h",4.106
same,"CMA activity, mean (Fig. S2c, first panel)",[1]; [3],74.2616
same,"CMA activity, mean (Fig. S2c, second panel)",[1]; [3],29.9019
same,"CMA activity, mean (Fig. S2c, third panel)",[1]; [3],74.2616
same,"CMA activity (Fig. 1h-j), mean, untreated (0) = 1","[1]; concentration 10, 12+12w",2.775
same,"CMA activity (Fig. 1h-j), mean, untreated (0) = 1","[1]; concentration 10, 12h",2.902
same,"CMA activity (Fig. 1h-j), mean, untreated (0) = 1","[1]; concentration 10, 24h",6.322
same,"CMA activity, mean (Fig. S2c, first panel)",[1]; [4],68.2986
same,"CMA activity, mean (Fig. S2c, second panel)",[1]; [4],41.4399
same,"CMA activity, mean (Fig. S2c, third panel)",[1]; [4],68.2986
same,"CMA activity, mean (Fig. S2c, first panel)",[1]; [5],74.8347
same,"CMA activity, mean (Fig. S2c, second panel)",[1]; [5],54.0516
same,"CMA activity, mean (Fig. S2c, third panel)",[1]; [5],74.8347
same,"CMA activity (Fig. 1h-j), mean, untreated (0) = 1","[1]; concentration 20, 12+12w",4.843
same,"CMA activity (Fig. 1h-j), mean, untreated (0) = 1","[1]; concentration 20, 12h",6.406
same,"CMA activity (Fig. 1h-j), mean, untreated (0) = 1","[1]; concentration 20, 24h",12.0736
same,"CMA activity, mean (Fig. S2c, first panel)",[1]; [6],71.1281
same,"CMA activity, mean (Fig. S2c, second panel)",[1]; [6],57.8636
same,"CMA activity, mean (Fig. S2c, third panel)",[1]; [6],71.1281
same,"CMA activity, mean (Fig. S2c, first panel)",[1]; [7],76.3164
same,"CMA activity, mean (Fig. S2c, second panel)",[1]; [7],40.4368
same,"CMA activity, mean (Fig. S2c, third panel)",[1]; [7],76.3164
same,"CMA activity (Fig. 1h-j), mean, untreated (0) = 1","[1]; concentration 30, 12+12w",9.0956
same,"CMA activity (Fig. 1h-j), mean, untreated (0) = 1","[1]; concentration 30, 12h",8.564
same,"CMA activity (Fig. 1h-j), mean, untreated (0) = 1","[1]; concentration 30, 24h",12.4798
same,"CMA activity, mean (Fig. S2c, first panel)",[1]; [8],78.3071
same,"CMA activity, mean (Fig. S2c, second panel)",[1]; [8],58.9165
same,"CMA activity, mean (Fig. S2c, third panel)",[1]; [8],78.3071
same,"CMA activity, mean (Fig. S2c, first panel)",[1]; [9],53.1619
same,"CMA activity, mean (Fig. S2c, second panel)",[1]; [9],68.5848
same,"CMA activity, mean (Fig. S2c, third panel)",[1]; [9],53.1619
same,CMA activation compared with AR7,"[1]; fluorescent CMA reporter in mouse fibroblasts, basal and inducible CMA",> 40 % CMA of AR7
same,toxicity in cells,[1]; mouse fibroblasts,without noticeable toxicity
same,duration of the increase in degradation of long-lived proteins,"NIH3T3; NIH3T3, 10 μM",remained upregulated 24 h
same,"Lysosomal proteolysis, Mean (Fig. S3c)",NIH3T3; Time 6,2.60
same,"Lysosomal proteolysis, Mean (Fig. S3c)",NIH3T3; Time 12,7.36
same,"CMA activity, mean relative to concentration 0 = 1 (Fig. S2b)","[2]; 12+12w, concentration 0.2",0.9934
same,"CMA activity, mean relative to concentration 0 = 1 (Fig. S2b)","[2]; 12+12w, concentration 2",0.9832
same,"CMA activity, mean relative to concentration 0 = 1 (Fig. S2b)","[2]; 12+12w, concentration 5",3.155
same,"CMA activity, mean relative to concentration 0 = 1 (Fig. S2b)","[2]; 12+12w, concentration 10",2.605
same,"CMA activity, mean relative to concentration 0 = 1 (Fig. S2b)","[2]; 12+12w, concentration 20",4.196
same,"CMA activity, mean relative to concentration 0 = 1 (Fig. S2b)","[2]; 12+12w, concentration 30",3.752
same,"CMA activity, mean (Fig. S2a)","[2]; 12h, concentration 0.02",3.028
same,"CMA activity, mean (Fig. S2a)","[2]; 12h, concentration 0.2",4.51
same,"CMA activity, mean relative to concentration 0 = 1 (Fig. S2b)","[2]; 12h, concentration 0.2",1.03
same,"CMA activity, mean (Fig. S2a)","[2]; 12h, concentration 2",4.84
same,"CMA activity, mean relative to concentration 0 = 1 (Fig. S2b)","[2]; 12h, concentration 2",1.106
same,"CMA activity, mean (Fig. S2a)","[2]; 12h, concentration 5",10.9424
same,"CMA activity, mean relative to concentration 0 = 1 (Fig. S2b)","[2]; 12h, concentration 5",2.5
same,"CMA activity, mean (Fig. S2a)","[2]; 12h, concentration 10",9.785
same,"CMA activity, mean relative to concentration 0 = 1 (Fig. S2b)","[2]; 12h, concentration 10",2.2356
same,"CMA activity, mean (Fig. S2a)","[2]; 12h, concentration 20",12.4415
same,"CMA activity, mean relative to concentration 0 = 1 (Fig. S2b)","[2]; 12h, concentration 20",2.842
same,"CMA activity, mean (Fig. S2a)","[2]; 12h, concentration 30",12.3771
same,"CMA activity, mean relative to concentration 0 = 1 (Fig. S2b)","[2]; 12h, concentration 30",2.828
same,"CMA activity, mean (Fig. S2a)","[2]; 12h, concentration 40",18.3499
same,"CMA activity, mean (Fig. S2a)","[2]; 12h, concentration 50",17.0288
same,"CMA activity, mean (Fig. S2a)","[2]; 12h, concentration 60",19.2922
same,"CMA activity, mean (Fig. S2a)","[2]; 24h, concentration 0.02",3.481
same,"CMA activity, mean (Fig. S2a)","[2]; 24h, concentration 0.2",5.502
same,"CMA activity, mean relative to concentration 0 = 1 (Fig. S2b)","[2]; 24h, concentration 0.2",1.258
same,"CMA activity, mean (Fig. S2a)","[2]; 24h, concentration 2",4.784
same,"CMA activity, mean relative to concentration 0 = 1 (Fig. S2b)","[2]; 24h, concentration 2",1.094
same,"CMA activity, mean (Fig. S2a)","[2]; 24h, concentration 5",12.5789
same,"CMA activity, mean relative to concentration 0 = 1 (Fig. S2b)","[2]; 24h, concentration 5",2.876
same,"CMA activity, mean (Fig. S2a)","[2]; 24h, concentration 10",14.7898
same,"CMA activity, mean relative to concentration 0 = 1 (Fig. S2b)","[2]; 24h, concentration 10",3.382
same,"CMA activity, mean (Fig. S2a)","[2]; 24h, concentration 20",22.8096
same,"CMA activity, mean relative to concentration 0 = 1 (Fig. S2b)","[2]; 24h, concentration 20",5.216
same,"CMA activity, mean (Fig. S2a)","[2]; 24h, concentration 30",25.6157
same,"CMA activity, mean relative to concentration 0 = 1 (Fig. S2b)","[2]; 24h, concentration 30",5.858
same,"CMA activity, mean (Fig. S2a)","[2]; 24h, concentration 40",31.0418
same,"CMA activity, mean (Fig. S2a)","[2]; 24h, concentration 50",34.0174
same,"CMA activity, mean (Fig. S2a)","[2]; 24h, concentration 60",32.9288
same,CMA activation in neuron-related mouse cells,[2]; in words,efficiently activated CMA
